The text below walks through data of publication PMC6556873, “Rapid Covalent-Probe Discovery by Electrophile-Fragment Screening” (Journal of the American Chemical Society, 2019).

For orientation: viability means a read-out of living cells in per cent, often relative to untreated cells.

Series [1] can be described thus: in vitro. The conditions noted are these: human, ccd841 cells. On the set-up: species or system HB2, HEK293.
Series [2] deals with T1, NUDT7 (Homo sapiens, UniProt P0C024).
T1 construct: residues 14-235, E. coli, pNIC28-Bsa4, N-terminal His6 tag removed by TEV, construct 26672 Da
T1 sequence (P0C024 14-235): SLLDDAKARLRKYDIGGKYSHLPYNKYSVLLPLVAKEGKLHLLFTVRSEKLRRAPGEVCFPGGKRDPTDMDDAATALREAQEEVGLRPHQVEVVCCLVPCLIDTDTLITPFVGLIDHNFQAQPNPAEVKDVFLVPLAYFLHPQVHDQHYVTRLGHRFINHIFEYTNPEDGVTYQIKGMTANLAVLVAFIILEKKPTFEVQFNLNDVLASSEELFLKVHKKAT
Also noted: Intact protein LC/MS covalent labelling, fragments in pools of five, 200 uM each, 4 °C. Particulars: 24 h, 4 °C, pool of five; 200 µM; covalent.

Series [3] deals with T2, BSA (Bos taurus, UniProt P02769).
T2 construct: gene ALB
T2 sequence (P02769 whole entry): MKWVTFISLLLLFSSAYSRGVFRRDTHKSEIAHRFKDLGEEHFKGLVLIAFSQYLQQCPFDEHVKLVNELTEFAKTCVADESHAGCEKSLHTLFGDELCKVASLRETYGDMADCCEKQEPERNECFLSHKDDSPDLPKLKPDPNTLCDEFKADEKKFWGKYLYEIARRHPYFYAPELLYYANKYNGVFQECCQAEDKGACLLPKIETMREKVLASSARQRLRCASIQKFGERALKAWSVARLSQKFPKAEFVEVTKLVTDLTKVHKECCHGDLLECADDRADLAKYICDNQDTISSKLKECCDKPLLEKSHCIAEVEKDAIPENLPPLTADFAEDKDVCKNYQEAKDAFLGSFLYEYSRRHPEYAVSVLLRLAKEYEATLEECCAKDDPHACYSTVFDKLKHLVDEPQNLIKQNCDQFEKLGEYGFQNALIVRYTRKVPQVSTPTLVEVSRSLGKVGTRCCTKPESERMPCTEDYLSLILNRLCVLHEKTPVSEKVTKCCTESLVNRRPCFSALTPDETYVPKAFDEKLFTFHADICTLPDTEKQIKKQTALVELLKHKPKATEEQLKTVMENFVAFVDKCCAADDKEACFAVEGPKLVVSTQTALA
Also noted: Intact protein LC/MS covalent labelling, fragments in pools of five, 200 uM each, 4 °C. Particulars: 24 h, 4 °C, pool of five; 200 µM; covalent.

The target in series [4] is T3, PCAF (Homo sapiens, UniProt Q92831).
T3 construct: gene KAT2B
T3 sequence (Q92831 whole entry): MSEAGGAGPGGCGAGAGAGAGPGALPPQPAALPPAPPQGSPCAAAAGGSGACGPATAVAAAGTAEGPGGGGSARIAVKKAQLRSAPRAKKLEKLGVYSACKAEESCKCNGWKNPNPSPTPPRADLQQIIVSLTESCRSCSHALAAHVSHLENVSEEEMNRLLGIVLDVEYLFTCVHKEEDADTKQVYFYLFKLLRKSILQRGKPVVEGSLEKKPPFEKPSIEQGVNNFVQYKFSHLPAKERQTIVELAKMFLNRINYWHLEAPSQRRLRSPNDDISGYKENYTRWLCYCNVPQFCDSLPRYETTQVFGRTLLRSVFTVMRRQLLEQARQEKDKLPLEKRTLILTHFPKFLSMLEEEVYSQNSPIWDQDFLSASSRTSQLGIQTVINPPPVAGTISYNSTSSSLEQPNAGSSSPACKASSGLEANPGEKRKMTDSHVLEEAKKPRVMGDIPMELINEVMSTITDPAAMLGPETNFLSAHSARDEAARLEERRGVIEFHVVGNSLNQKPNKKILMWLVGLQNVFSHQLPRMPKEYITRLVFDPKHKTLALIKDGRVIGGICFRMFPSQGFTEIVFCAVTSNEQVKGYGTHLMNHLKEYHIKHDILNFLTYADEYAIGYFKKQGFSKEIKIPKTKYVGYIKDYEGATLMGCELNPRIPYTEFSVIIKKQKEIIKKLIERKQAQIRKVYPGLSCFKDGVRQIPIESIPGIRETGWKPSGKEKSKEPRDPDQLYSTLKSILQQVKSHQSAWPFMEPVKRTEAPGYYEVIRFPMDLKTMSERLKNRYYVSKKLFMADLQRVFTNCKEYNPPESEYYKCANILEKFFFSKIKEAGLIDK
On the set-up: Intact protein LC/MS covalent labelling, fragments in pools of five, 200 uM each, 4 °C. The conditions noted are these: 24 h, 4 °C, pool of five; 200 µM; covalent.

Series [5] addresses T4, OTUB2 (OTUB2A) (Homo sapiens, UniProt Q96DC9).
T4 construct: full length residues 1-234, E. coli BL21(DE3)-R3, His tag removed by TEV, construct 27312 Da
T4 sequence (Q96DC9 1-234): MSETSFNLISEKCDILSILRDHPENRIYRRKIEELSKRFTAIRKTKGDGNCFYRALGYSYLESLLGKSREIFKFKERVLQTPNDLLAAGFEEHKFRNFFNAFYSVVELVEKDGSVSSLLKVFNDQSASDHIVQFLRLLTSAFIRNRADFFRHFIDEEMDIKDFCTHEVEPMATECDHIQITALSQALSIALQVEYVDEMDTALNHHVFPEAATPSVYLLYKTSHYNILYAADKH
On the set-up: Intact protein LC/MS covalent labelling, fragments in pools of five, 200 uM each, 4 °C. Particulars: 24 h, 4 °C, pool of five; 200 µM; covalent.

A short description of series [6]: in vitro. On the set-up: species or system HB2, CCD841. The conditions noted are these: human, hek293 cells.
A short description of series [7]: in vitro. On the set-up: species or system CCD841, HEK293. Particulars: human, hb2 cells, read-out: HB-2 Cells Viability (%).

SMILES strings stand for the structures. Like-named read-outs stand apart in the source and are kept apart here.

As for `O=C(CCl)Nc1ccc(Cl)c([N+](=O)[O-])c1` [PCM-0102316], the viability at 48 h, 10 µM in series [1] worked out at 1%; in series [6], 1.1%; in series [7] it was 0.4%. Further, the NUDT7 in series [2] is listed as 0.28. In addition, the BSA in series [3] is 0. Further, in series [4], the PCAF is given as 0. Also, in series [5], the OTUB2 was 0.36.

As for `O=C(CCl)Nc1ccccc1I` [PCM-0102509], the results for the viability at 48 h, 10 µM in series [1], in series [6] and in series [7] were 91.1%, 99.4% and 95.5%, respectively. Moreover, in series [2], the NUDT7 is listed as 0. In series [3], this molecule came in with a BSA of 0.1. In series [4], this molecule returned a PCAF of 0. In series [5], this molecule had an OTUB2 of 0.

Regarding `O=C(CCl)NNC(=O)c1cccs1` [PCM-0102426], the viability at 48 h, 10 µM in series [1] came to 88.7%; in series [6], 82.8%; in series [7], 86%. The NUDT7 in series [2] came out at 0. In addition, the BSA in series [3] stood at 0. In series [4], the PCAF was 0. Further, the OTUB2 in series [5] turned out to be 0.6.

Regarding `CC1(NC(=O)CCl)CCS(=O)(=O)C1` (stereo not drawn) [PCM-0102230], the values for the viability at 48 h, 10 µM in series [1], in series [6] and in series [7] were 92.7%, 92.6% and 105%, respectively. This molecule also returned an NUDT7 in series [2] of 0. This molecule gave a BSA in series [3] of 0. This molecule yielded a PCAF in series [4] of 0. For the same molecule, in series [5], the OTUB2 worked out at 0.

Consider `C=CC(=O)NC1CCC2(CC1)OCCO2` [PCM-0102564], for which the viability at 48 h, 10 µM in series [1] is 132%; in series [6] it was 75.1%; in series [7], 109%. In series [2], this molecule registered an NUDT7 of 0. The same molecule displayed a BSA in series [3] of 0. Further, the PCAF in series [4] amounted to 0. Besides, in series [5], the OTUB2 was 0.

Turning to `C=CC(=O)Nc1ccccc1OC` [PCM-0102493], the figures for the viability at 48 h, 10 µM in series [1], in series [6] and in series [7] were 105%, 74.7% and 98.2%, respectively. Also, the NUDT7 in series [2] is on record as 0. In series [3], this molecule displayed a BSA of 0. Also, in series [4], the PCAF turned out to be 0. This molecule registered an OTUB2 in series [5] of 0.

As for `Cc1sc(NC(=O)CCl)c(C)c1C` [PCM-0102968], the viability at 48 h, 10 µM in series [1] is 57.3%; in series [6], 2.3%; in series [7] it was 16.1%. Besides, in series [2], the NUDT7 worked out at 0. Besides, the BSA in series [3] is given as 0. In series [4], this molecule registered a PCAF of 0. This molecule came in with an OTUB2 in series [5] of 0.

In the case of `O=C(CCl)Nc1cc([N+](=O)[O-])ccc1F` [PCM-0102544], the viability at 48 h, 10 µM in series [1] was determined as 2.5%; in series [6], 1.8%; in series [7], 1.6%. The molecule also registered an NUDT7 in series [2] of 0. The BSA in series [3] is listed as 0. The same molecule yielded a PCAF in series [4] of 0. The OTUB2 in series [5] stood at 0.31.

Take `O=C(CCl)N1CCC2(CC1)OCCO2` [PCM-0102823]: the viability at 48 h, 10 µM in series [1] is 99.2%; in series [6] it was 91.5%; in series [7], 98.2%. In series [2], this molecule came in with an NUDT7 of 0. In addition, the BSA in series [3] is 0. Also, the PCAF in series [4] amounted to 0. Further, the OTUB2 in series [5] was determined as 0.

Consider `Cc1ccc(S(C)(=O)=O)cc1NC(=O)CCl` [PCM-0102858], for which the viability at 48 h, 10 µM in series [1] is 66.6%; in series [6], 19.2%; in series [7] it was 58.6%. This molecule displayed an NUDT7 in series [2] of 0. Also, the BSA in series [3] amounted to 0. For the same molecule, the PCAF in series [4] was 0. The molecule also showed an OTUB2 in series [5] of 0.

Take `O=C(CCl)NCC1CCOC1` (stereo not drawn) [PCM-0102596]: the viability at 48 h, 10 µM in series [1] was 90.8%; in series [6], 112%; in series [7] it was 93.6%. In series [2], this molecule showed an NUDT7 of 0. The BSA in series [3] is given as 0. In series [4], this molecule displayed a PCAF of 0. The same molecule yielded an OTUB2 in series [5] of 0.13.

As to `C=CC(=O)N1CCC(NC(=O)c2ccncc2)CC1` [PCM-0102595], the viability at 48 h, 10 µM in series [1] stood at 102%; in series [6] it was 94.7%; in series [7], 102%. For the same molecule, the NUDT7 in series [2] stood at 0. Moreover, the BSA in series [3] amounted to 0. The same molecule displayed a PCAF in series [4] of 0. In series [5], this molecule displayed an OTUB2 of 0.

Consider `COc1ccccc1NC(=O)CCl` [PCM-0102236], for which the figures for the viability at 48 h, 10 µM in series [1], in series [6] and in series [7] were 79%, 58.4% and 71%, respectively. The same molecule yielded an NUDT7 in series [2] of 0. Also, the BSA in series [3] is on record as 0. Further, the PCAF in series [4] is recorded as 0. Besides, the OTUB2 in series [5] amounted to 0.28.

Regarding `Cc1c(C#N)c(NC(=O)CCl)n(-c2cccc(F)c2)c1C` [PCM-0102146], the viability at 48 h, 10 µM in series [1] came out at 47.1%; in series [6], 3.5%; in series [7], 25%. The same molecule showed an NUDT7 in series [2] of 0.58. In addition, the BSA in series [3] stood at 0. Besides, the PCAF in series [4] is reported as 0. The molecule further registered an OTUB2 in series [5] of 0.1.

As to `COc1ccc(N2CCN(C(=O)CCl)CC2)cc1` [PCM-0102254], the viability at 48 h, 10 µM was 84.2% in series [1], 42.2% in series [6] and 33.8% in series [7]. Moreover, the NUDT7 in series [2] was 0. In series [3], this molecule had a BSA of 0. Also, the PCAF in series [4] was found to be 0. The molecule also registered an OTUB2 in series [5] of 0.

`CCN(C(=O)CCl)C1=CCCCC1` [PCM-0103084]: the figures for the viability at 48 h, 10 µM in series [1], in series [6] and in series [7] were 97.8%, 120% and 106%, respectively. Also, the NUDT7 in series [2] turned out to be 0. Moreover, the BSA in series [3] came to 0.19. The same molecule displayed a PCAF in series [4] of 0. Also, the OTUB2 in series [5] worked out at 0.

For `O=C(CCl)NC(=O)c1ccc(Cl)cc1` [PCM-0102711], the viability at 48 h, 10 µM in series [1] is 96.8%; in series [6] it was 103%; in series [7], 98.9%. This molecule came in with an NUDT7 in series [2] of 0. In addition, the BSA in series [3] came to 0. This molecule returned a PCAF in series [4] of 0. Moreover, the OTUB2 in series [5] stood at 0.

For `O=C(CCl)N1CCc2sccc2C1c1ccccc1` (stereo not drawn) [PCM-0103024], the values for the viability at 48 h, 10 µM in series [1], in series [6] and in series [7] were 3%, 1.9% and 4.6%, respectively. This molecule came in with an NUDT7 in series [2] of 0.69. In series [3], this molecule had a BSA of 0. The same molecule displayed a PCAF in series [4] of 0. In addition, the OTUB2 in series [5] is listed as 0.

`CC(=O)c1cccc(NC(=O)CCl)c1` [PCM-0102965]: the viability at 48 h, 10 µM in series [1] amounted to 11%; in series [6], 1.9%; in series [7] it was 2.5%. For the same molecule, the NUDT7 in series [2] turned out to be 0. The molecule also displayed a BSA in series [3] of 0. This molecule returned a PCAF in series [4] of 0. In series [5], this molecule returned an OTUB2 of 0.36.

For `O=C(CCl)Nc1ccccc1[N+](=O)[O-]` [PCM-0102232], the viability at 48 h, 10 µM is 81.8% in series [1], 73.9% in series [6] and 75.4% in series [7]. In addition, in series [2], the NUDT7 is 0.24. In series [3], this molecule came in with a BSA of 0. The PCAF in series [4] is 0. In series [5], the OTUB2 came out at 0.2.

For the molecule `O=C(CCl)N(CC(F)(F)F)c1ccc(Cl)cc1` [PCM-0102155], the viability at 48 h, 10 µM was found to be 3.5% in series [1], 4.3% in series [6] and 11.2% in series [7]. Further, the NUDT7 in series [2] came out at 0.79. Moreover, the BSA in series [3] is reported as 0. Also, the PCAF in series [4] worked out at 0. Besides, the OTUB2 in series [5] was 0.

`C=CC(=O)N1CCn2c(cc3ccc(Cl)cc32)C1` [PCM-0102503]: the viability at 48 h, 10 µM was found to be 102% in series [1], 74.4% in series [6] and 98.2% in series [7]. Further, the NUDT7 in series [2] is recorded as 0. Also, the BSA in series [3] turned out to be 0. Besides, the PCAF in series [4] is given as 0. In series [5], this molecule registered an OTUB2 of 0.

For the molecule `CCNC(=O)NC(=O)CCl` [PCM-0102654], the viability at 48 h, 10 µM in series [1] came out at 92.6%; in series [6], 82.2%; in series [7] it was 90.8%. In series [2], this molecule registered an NUDT7 of 0. In addition, in series [3], the BSA is given as 0. In series [4], this molecule displayed a PCAF of 0. The same molecule yielded an OTUB2 in series [5] of 0.

With `O=C(CCl)Nc1ccc2c(c1)OC(F)(F)O2` [PCM-0102738], the viability at 48 h, 10 µM in series [1] stood at 72.2%; in series [6], 14.2%; in series [7], 30%. In addition, the NUDT7 in series [2] amounted to 0. The molecule also returned a BSA in series [3] of 0. The PCAF in series [4] is on record as 0. For the same molecule, the OTUB2 in series [5] came to 0.41.
